pIC50: −log10 of the molar value.
Columns and labels:
HCT116 = assay: Cytotoxicity assay (propidium iodide), HCT116; assay type: cell-based; settings: Homo sapiens, HCT-116; HCT116 (C4b, colon); 48 hours
Experimental: (§4) Cells from cell lines as mentioned in the table given below were seeded at a density of 3000 cells/well in a white opaque 96-well plate. Following incubation at 37° C./5% CO2 for a period of 18-24 hours, the cells were treated with various concentrations (stock solution was prepared in DMSO and subsequent dilutions were made in media as per ATCC guidelines) of the representative compounds of present invention (refer table 3) for a period of 48 hours. At the end of treatment, the spent culture medium was discarded, the cells were washed with 1×PBS and 200 μl of 7 μg/ml propidium iodide was added to each well. The plates were frozen at −70° C. for at least 24 hours. For analysis, the plates were brought to RT, allowed to thaw and were read in PolarStar fluorimeter with the fluorescence setting. The percentage of viable cells in the non treated set of wells was considered to be 100 and the percentage viability following treatment was calculated accordingly. IC50 values were calculated from graphs plotted using these percentages.

PANC 1 = assay: Cytotoxicity assay (propidium iodide), PANC 1; assay type: cell-based; settings: Homo sapiens; PANC 1 (C5a, pancreatic); 48 hours
Experimental: as §4

CAPAN1 = assay: Cytotoxicity assay (propidium iodide), CAPAN1; assay type: cell-based; settings: Homo sapiens, CAPAN-1; CAPAN1 (C5b, pancreatic); 48 hours
Experimental: as §4

PI3Kα kinase = target: T1, PI3Kα kinase (Homo sapiens, UniProt P42336); assay: Kinase assay (PI3Kα); assay type: biochemical; settings: read-out: IC50 (μM) for PI3K inhibition
T1 construct: purchased Millipore, USA
T1 sequence (P42336 whole entry): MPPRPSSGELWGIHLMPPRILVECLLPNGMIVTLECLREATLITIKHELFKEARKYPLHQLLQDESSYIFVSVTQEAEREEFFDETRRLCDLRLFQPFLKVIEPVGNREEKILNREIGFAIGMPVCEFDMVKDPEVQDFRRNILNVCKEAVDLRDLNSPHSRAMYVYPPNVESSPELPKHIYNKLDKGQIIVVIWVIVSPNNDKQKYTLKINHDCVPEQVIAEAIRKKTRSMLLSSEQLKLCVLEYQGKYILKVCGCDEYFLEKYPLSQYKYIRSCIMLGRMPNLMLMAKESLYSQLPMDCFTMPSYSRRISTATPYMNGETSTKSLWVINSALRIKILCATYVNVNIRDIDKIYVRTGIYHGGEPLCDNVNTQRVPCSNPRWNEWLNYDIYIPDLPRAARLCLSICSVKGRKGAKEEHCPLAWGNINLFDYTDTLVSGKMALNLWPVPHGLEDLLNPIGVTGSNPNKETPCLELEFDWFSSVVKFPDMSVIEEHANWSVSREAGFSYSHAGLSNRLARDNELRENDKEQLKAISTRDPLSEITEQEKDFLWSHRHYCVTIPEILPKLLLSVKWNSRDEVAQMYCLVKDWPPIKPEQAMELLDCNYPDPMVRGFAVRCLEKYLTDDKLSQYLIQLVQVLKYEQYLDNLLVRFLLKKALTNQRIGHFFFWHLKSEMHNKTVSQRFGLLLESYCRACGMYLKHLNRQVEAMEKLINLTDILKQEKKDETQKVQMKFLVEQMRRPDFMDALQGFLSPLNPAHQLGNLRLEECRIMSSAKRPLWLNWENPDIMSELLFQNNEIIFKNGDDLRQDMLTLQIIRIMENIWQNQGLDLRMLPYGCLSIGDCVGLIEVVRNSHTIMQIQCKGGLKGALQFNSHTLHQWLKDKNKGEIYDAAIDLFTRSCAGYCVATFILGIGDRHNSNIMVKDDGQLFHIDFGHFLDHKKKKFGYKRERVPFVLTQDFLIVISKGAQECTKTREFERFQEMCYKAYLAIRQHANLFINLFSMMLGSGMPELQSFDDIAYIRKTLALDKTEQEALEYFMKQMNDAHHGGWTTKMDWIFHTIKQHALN
T1 sequence (P27986 whole entry partner): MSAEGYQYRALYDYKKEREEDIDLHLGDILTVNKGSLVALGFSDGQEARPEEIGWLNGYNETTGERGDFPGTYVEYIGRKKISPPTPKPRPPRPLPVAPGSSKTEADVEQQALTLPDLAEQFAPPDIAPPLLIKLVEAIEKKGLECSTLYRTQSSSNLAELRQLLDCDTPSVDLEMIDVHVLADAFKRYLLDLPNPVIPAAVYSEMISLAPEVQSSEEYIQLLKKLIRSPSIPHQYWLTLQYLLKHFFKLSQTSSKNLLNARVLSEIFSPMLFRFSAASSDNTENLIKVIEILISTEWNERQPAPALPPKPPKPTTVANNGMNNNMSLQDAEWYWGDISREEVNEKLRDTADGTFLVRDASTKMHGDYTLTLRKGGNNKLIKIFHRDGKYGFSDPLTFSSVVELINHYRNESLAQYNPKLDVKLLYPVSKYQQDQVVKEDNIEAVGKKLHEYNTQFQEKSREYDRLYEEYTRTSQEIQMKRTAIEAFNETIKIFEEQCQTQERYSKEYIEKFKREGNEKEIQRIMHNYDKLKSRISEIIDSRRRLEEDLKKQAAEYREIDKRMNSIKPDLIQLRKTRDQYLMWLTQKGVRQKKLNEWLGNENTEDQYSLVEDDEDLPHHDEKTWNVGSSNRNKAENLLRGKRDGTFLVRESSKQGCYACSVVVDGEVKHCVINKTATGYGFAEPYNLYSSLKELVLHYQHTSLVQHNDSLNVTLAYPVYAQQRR
In short: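 Recombinant PI3Kα (20 ng) phosphorylated 12.5 μg phosphatidylinositol with 10 μM ATP and 1 μCi ^32γ P […] in 10 mM Hepes pH 7.5, 50 mM MgCl2 for 20 min at 30° C. Lipids were extracted with MeOH/CHCl3, resolved by TLC, and labelled PI quantified by autoradiography densitometry; PI-103 served as standard.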

IL-6 = assay: Synovial tissue assay, IL-6; assay type: cell-based; settings: Homo sapiens; synovial tissue cells from rheumatoid arthritis patients, 16 hours
Experimental: (§1) The assay was designed as in the reference, Lancet, 2(8657), 244-7, Jul.
(§2) Stock Solution: Compounds of the present invention were dissolved in DMSO to obtain a stock solution of 20 mM.
(§3) Synovial tissue was obtained from rheumatoid arthritis patients undergoing knee replacement surgery. The tissue was minced into small pieces and digested in RPMI medium containing 100 U/ml penicillin-G, 100 μg/ml streptomycin, 50 ng/ml amphotericin B (GIBCO; USA), 1.33 mg/ml collagenase Type I (Worthington Biochemical Corporation, New Jersey), 0.5 μg/ml DNAse Type I (Sigma Aldrich; St. Louis, Mo.) and 8.33 U/ml heparin (Biological E. Limited, India) for 3 hours at 37° C., 5% CO2. The digested tissue was filtered through a membrane (mesh size 70 micron; Sigma Aldrich). Subsequently, the cells were washed 3 times and resuspended in complete medium (RPMI supplemented with 5% FBS and 5% human serum-AB+) at a concentration of 1×10^6 cells/ml. All cell washes in this assay were performed using Rosewall Park Memorial Institute (RPMI)-1640 medium (JRH; Australia). For the experiment, 100 μl of cell suspension was added to the wells of a 96-well culture plate. Following cell plating, 100 μl of the culture medium and 1 μl of various concentrations (0.01, 0.03, 0.1, 0.3, 1, 3, 10, 30 and 100 μM) of the compounds of present invention dissolved in DMSO were added to the cells. The final concentration of DMSO was adjusted to 0.5%. For experimental purposes, 1 μl of […] concentrated solution of the compounds of present invention were dissolved in 200 μl cell suspension to achieve a final concentration of 0.01, 0.03, 0.1, 0.3, 1, 3, 10, 30 and 100 μM. The vehicle (0.5% DMSO) was used as control. 10 μM dexamethasone (Sigma Aldrich) or 1 μM 7-hydroxyfluorinide (7HF) were used as standards for the experiments. The plates were incubated for 16 hours at 37° C., 5% CO2. Subsequently, the supernatants were harvested and stored at −70° C. The amounts of TNF-α, IL-6 and interleukin-8 (IL-8) in the supernatants were assayed using OptiEIA ELISA sets, (BD BioSciences Pharmingen). The protocol followed was as per manufacturers instructions. […] The cytotoxicity of test compounds in synovial cells was assessed by MTS assay. Absorbance was measured at 490 nm. Percent cytotoxicity was calculated by the equation: % Cytotoxicity=(A−B)/A×100 where, A is the absorbance of cells treated with DMSO alone and B is the absorbance of cells treated with the test article.

OVCAR 3 = assay: Cytotoxicity assay (propidium iodide), OVCAR 3; assay type: cell-based; settings: Homo sapiens; OVCAR 3 (C3c, ovarian); 48 hours
A549 = assay: Cytotoxicity assay (propidium iodide), A549; assay type: cell-based; settings: Homo sapiens; A549 (C1a, lung); 48 hours
TNF-α = assay: Synovial tissue assay, TNF-α; assay type: cell-based; settings: Homo sapiens; synovial tissue cells from rheumatoid arthritis patients, 16 hours
Experimental: as §1, §2, §3

SMILES	IC50 (PI3Kα kinase)	IC50 (IL-6)	IC50 (TNF-α)	pIC50 (HCT116)	pIC50 (PANC 1)	pIC50 (CAPAN1)	pIC50 (OVCAR 3)	pIC50 (A549)
CN(N=Cc1cnc2ccc(-c3cccnc3)cn12)S(=O)(=O)c1cccc(F)c1 [Example 5, 3-Fluoro-N-methyl-N′-((6-(pyridine-3-yl)imidazo[1,2-a]pyridine-3-yl)methylene)benzenesulfonohydrazide]	0.5 to 1 µM	0.01 to 0.3 µM	0.01 to 0.3 µM	5.30 to 8.00	5.30 to 8.00	5.30 to 8.00	5.30 to 8.00	5.30 to 8.00
CN(N=Cc1cnc2ccc(-c3cccnc3)cn12)S(=O)(=O)c1ccc(F)cc1 [Example 6, 4-Fluoro-N-methyl-N′-((6-(pyridine-3-yl)imidazo[1,2-a]pyridine-3-yl)methylene)benzenesulfonohydrazide]	0.5 to 1 µM	0.3 to 3 µM	0.01 to 0.3 µM	5.30 to 8.00	5.30 to 8.00	5.30 to 8.00	5.30 to 8.00	5.30 to 8.00

Continued, in another order:

IC50 (PI3Kα kinase)	IC50 (IL-6)	IC50 (TNF-α)	SMILES	pIC50 (HCT116)	pIC50 (PANC 1)	pIC50 (CAPAN1)	pIC50 (OVCAR 3)	pIC50 (A549)
0.5 to 1 µM	0.01 to 0.3 µM	0.01 to 0.3 µM	CN(N=Cc1cnc2ccc(-c3cccnc3)cn12)S(=O)(=O)c1cc(F)cc(F)c1 [Example 16, 3,5-Difluoro-N-methyl-N′-((6-(pyridine-3-yl)imidazo[1,2-a]pyridine-3-yl)methylene) benzenesulfonohydrazide]					
0.01 to 0.5 µM	0.01 to 0.3 µM	0.01 to 0.3 µM	Cc1ccc(F)cc1S(=O)(=O)N(C)N=Cc1cnc2ccc(-c3cccnc3)cn12 [Example 21, 5-Fluoro-N, 2-dimethyl-N′-((6-(pyridine-3-yl)imidazo[1,2-a]pyridine-3-yl)methylene) benzenesulfonohydrazide]	5.30 to 8.00	5.30 to 8.00	5.30 to 8.00	5.30 to 8.00	5.30 to 8.00
0.01 to 0.5 µM	0.01 to 0.3 µM	0.01 to 0.3 µM	Cc1ccc([N+](=O)[O-])cc1S(=O)(=O)N(C)N=Cc1cnc2ccc(-c3cccnc3)cn12 [Example 25]	5.30 to 8.00	5.30 to 8.00	5.30 to 8.00	5.30 to 8.00	5.30 to 8.00

Reference: patent US8741932B2, “Imidazopyridine derivatives” (Piramal Enterprises Limited, priority 2009, dated 2014)
